The subject of the test is in vivo angiogenesis, blood vessel count. Put plainly: angiogenesis inhibition in living animals, in vivo study, HTS (AID 732).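 Further: zebrafish embryos dosed at one day post fertilization; 0% = reference inhibitor and 100% = plate mean.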 The following applies: stronger effect = lower value;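 tested at 30 µM in the well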.

The source made the active and inactive calls. How the calls were made is not given here.

For 34 compounds, vessel count % control results are on record in PubChem BioAssay AID732 (Emory University Molecular Libraries Screening Center, 2007).

As to `CCc1cccc(N(C)C(N)=Nc2cccc3ccccc23)c1`, the vessel count % control was 105% (inactive). Under `c1ccc2c(c1)CCCC2C1=NCCN1` (centres undefined) stands 76% (inactive); under `O=C1NCC2(CCN(CCc3ccccc3)CC2)O1`, 110% (inactive).

With `CC(C)NCC(O)COc1cccc2ccccc12` (centres undefined), the vessel count % control is 117% (inactive). With `O=C(c1ccc2c(c1)OCCO2)N1CCCCC1` the figure was 106% (inactive); with `C[C@@H](NCCc1ccc(O)cc1)[C@@H](O)c1ccc(O)cc1`, 92.9% (inactive). In the case of `Brc1c(NC2=NCCN2)ccc2nccnc12`, the vessel count % control was 104% (inactive).

Consider `CC(=O)O[C@H]1C(=O)[C@@]2(C)C([C@H](OC(=O)c3ccccc3)[C@]3(O)C[C@H](OC(=O)[C@H](O)[C@@H](NC(=O)c4ccccc4)c4ccccc4)C(C)=C1C3(C)C)[C@]1(OC(C)=O)CO[C@@H]1C[C@@H]2O` (some centres undefined), for which the vessel count % control is 82.3% (inactive).

In the case of `O=C(O)c1cccnc1C(=O)O`, the vessel count % control was 88.1% (inactive). For the compound `O=C(O)CNC(=O)C(CS)Cc1ccccc1` (centres undefined), the vessel count % control was 117% (inactive).

As to `O=C1N=C(O)CN1/N=C/c1ccc(-c2ccc([N+](=O)[O-])cc2)o1`, the vessel count % control is 90.4% (inactive). Under `COc1ccc(CCNC[C@@H](O)c2ccc(O)cc2)cc1OC` stands 105% (inactive); under `CC(C)NP(=O)(NC(C)C)OP(=O)(NC(C)C)NC(C)C`, 117% (inactive); under `CNc1ncnc2c1ncn2[C@@H]1O[C@H](CO)[C@H](O)C1O` (some centres undefined), 95.4% (inactive). In the case of `NC(CCCCCP(=O)(O)O)C(=O)O` (centres undefined), the vessel count % control was 113% (inactive). Under `CNC(=O)[C@H]1O[C@@H](n2cnc3c(NCc4ccc(N)cc4)ncnc32)C(O)[C@H]1O` (some centres undefined) stands 134% (inactive).

Take `c1ccc2c(c1)[I+]c1ccccc1-2`: the vessel count % control was 112% (inactive).

As to `CC(=O)CCCCn1c(=O)c2c(ncn2C)n(C)c1=O`, the vessel count % control was 109% (inactive). Consider `Nc1ncnc2c1nc(Sc1ccc(Cl)cc1)n2C1OC2COP(=O)(O)O[C@@H]2[C@@H]1O` (some centres undefined), for which the vessel count % control was 88.9% (inactive). With `COc1ccc(-c2ccc(N)[n+](CCCC(=O)O)n2)cc1`, the vessel count % control was 105% (inactive). As to `CC(CCc1ccc(O)cc1)NCCc1ccc(O)c(O)c1` (centres undefined), the vessel count % control was 92.8% (inactive). With `CCCN(CCC)C(=O)Cc1c(-c2ccc(Cl)cc2)nc2c(Cl)cc(Cl)cn12` the figure was 89.9% (inactive); with `CC(=O)OCC1=C(C(=O)[O-])N2C(=O)[C@@H](NC(=O)CCC[C@@H](N)C(=O)[O-])[C@H]2SC1.[Zn+2]`, 106% (inactive); with `CCCCCCCCCCCCCCCCCC(=O)OC(CC(=O)O)C[N+](C)(C)C` (centres undefined), 71.9% (inactive). Under `COc1ccc(CCN(C)CCc2ccc(OC)c(OC)c2)cc1OC` stands 101% (inactive). With `NC(Cc1cc(O)c(O)cc1O)C(=O)O` (centres undefined) the figure was 88.2% (inactive); with `N[C@H](CO)C(=O)O`, 105% (inactive); with `NS(=O)(=O)c1cc2c(cc1Cl)NC=NS2(=O)=O`, 135% (inactive). As to `Clc1cccc(Cl)c1NC1=NCCN1`, the vessel count % control was 121% (inactive). Turning to `CC(=O)[C@H]1CC[C@H]2[C@@H]3CCC4=CC(=O)CC[C@]4(C)[C@H]3CC[C@]12C`, the vessel count % control was 102% (inactive).

As to `C[N+]1(C)CCC(OC(=O)C(c2ccccc2)c2ccccc2)CC1`, the vessel count % control was 91.5% (inactive).

Turning to `NCC1(CC(=O)O)CCCCC1`, the vessel count % control was 98.7% (inactive).

For `Nc1c2c(nc3ccccc13)CCCC2O` (centres undefined), the vessel count % control was 86.4% (inactive).

Turning to `NC(=O)c1ncn([C@@H]2O[C@H](CO)[C@@H](O)[C@H]2O)c1O`, the vessel count % control was 94.8% (inactive).
